# Where two headings read alike, the source gives them in different places. Where a SMILES comes first, the peptide text is derived from it. Bridges are numbered along the chain shown (N, C = ends). Roman numbers before positions name the chains, in order. Where no end group is shown, it is not given here. [ ]: non-standard residue; d: D form. Ahx = NCCCCCC(=O)O
# Experiments:
# IFNα, IFNβ, Mx1 mRNAs = format: cell-based, canine
# NP RNA of IAV strain PR8 = format: cell-based, type A influenza virus (IAV)
# IAV strain PR8 [1] = format: cell-based, type A influenza virus (IAV)
# CCL5 and CXCL10 mRNAs = format: cell-based, canine
# IAV strain PR8 [2] = tested on: IAV strain PR8; parameters: species or system BALB/c mice; details: mouse, in vivo
# CaMKII-KD = target: T1, CaMKII-KD (Rattus norvegicus, UniProt P11275); experiment: Kinase assay: phosphorylation of autocamtide-2 by CaMKII-KD; format: biochemical
# T1 construct: made in house; host or cells: Sf21 insect cells, baculovirus (pBacPAK8)
# T1 sequence (P11275 13-271 limits assumed): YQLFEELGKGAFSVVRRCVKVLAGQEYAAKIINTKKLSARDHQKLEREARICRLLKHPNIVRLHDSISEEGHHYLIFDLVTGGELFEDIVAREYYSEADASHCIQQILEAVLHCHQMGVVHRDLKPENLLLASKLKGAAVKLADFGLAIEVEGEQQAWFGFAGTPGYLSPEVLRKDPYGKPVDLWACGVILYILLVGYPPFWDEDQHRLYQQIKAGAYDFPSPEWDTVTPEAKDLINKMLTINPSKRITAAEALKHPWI
# IAV strain PR8 [3] = format: cell-based, type A influenza virus (IAV); remark: listed apart in the source
# [4] = tested on: CaMKII Thr286 autophosphorylation; experiment: Western blot of LPS-induced CaMKII activation in RAW264.7 cells (Fig. S2b); format: cell-based, mouse
# Experimental: (§1) a LPS promotes tumor necrosis factor α (TNFα) production in RAW264.7 cells. RAW264.7 cells were treated with the indicated concentration of LPS for 24 h. The amount of TNFα produced in the culture medium was measured by ELISA. Data are presented as a percentage of the control value without peptide (n = 3, mean ± SEM). **P < 0.01; ***P < 0.001 (compared with the control by ANOVA followed by one-sided Dunnett’s test). b The effects of M6 and mM3 on the activation of CaMKII in RAW264.7 cells. RAW264.7 cells were incubated with the indicated concentration of each peptide for 30 min, and then treated with 10 ng/ml LPS for 20 min. The cell lysates were analyzed by western blot using phosphorylated […] specific antibody to detect the activation of CaMKII (upper panel). Data are representative of three independent experiments. […] RAW264.7 cells were incubated with the indicated concentration of each peptide for 30 min, and then treated with10 ng/ml LPS for 3 h. The mRNA level of each proinflammatory cytokine was analyzed by quantitative RT-qPCR. Data are presented as the amount of each mRNA relative to that of LPS treatment only (n = 3, mean ± SEM). **P < 0.01, ***P < 0.001 (compared with the control by ANOVA followed by one-sided Tukey’s test).
# [5] = tested on: TNFα production in RAW264.7 cells; experiment: ELISA of TNFα production in LPS-treated RAW264.7 cells; format: cell-based, mouse; details: RAW264.7, peptide 30 min then LPS 10 ng/mL 24 h
# IL-6, TNFα, IL-1β mRNAs = experiment: RT-qPCR of proinflammatory cytokine mRNAs in LPS-treated RAW264.7 cells (Fig. S2c); format: cell-based, mouse; details: for IL-1β Relative expression AV / IL-6 Relative expression AV / TNFα Relative expression AV: RAW264.7 cells, LPS = 100, mean of n = 3
# Experimental: as §1
compound,measurement,setting,value
"O=C1c2c(O)c(=O)ccn2N([C@@H]2c3ccccc3SCc3c2ccc(F)c3F)[C@@H]2COCCN12 [BXA, Baloxavir acid]",expression of IFNα and β mRNAs early in infection,"IFNα, IFNβ, Mx1 mRNAs",rather increased the expression of both mRNAs
same,expression of IFNα and β mRNAs later in infection,"IFNα, IFNβ, Mx1 mRNAs",greatly reduced
same,infection-induced expression of NP mRNA,NP RNA of IAV strain PR8,efficiently inhibited
same,infection-induced cytopathicity,IAV strain PR8 [1],efficiently inhibited
same,expression of CXCL10 and CCL5 mRNAs,CCL5 and CXCL10 mRNAs,also increased their expression
Cc1nn(CC(F)(F)F)cc1Nc1ncc(Br)c(NCc2ccc(S(N)(=O)=O)cc2)n1 [GSK8612],"IAV-induced cytopathicity of MDCK cells, time of addition",IAV strain PR8 [1],best when GSK8612 was added up to 3 h after infection
COc1ccc(S(=O)(=O)N(CCO)c2ccccc2CN(C)C/C=C/c2ccc(Cl)cc2)cc1 [KN-93],protection from mortality,IAV strain PR8 [2],provided no protection
CSCC[C@H](N)C(=O)N[C@@H](C)C(=O)N[C@@H](CCCNC(=N)N)C(=O)N[C@@H](CCCNC(=N)N)C(=O)N[C@@H](CCCNC(=N)N)C(=O)N[C@@H](CC(C)C)C(=O)N[C@@H](CC(C)C)C(=O)N[C@@H](CC(C)C)C(=O)N[C@@H](CC(C)C)C(=O)N[C@@H](CC(C)C)C(=O)N[C@@H](C)C(=O)N[C@@H](CCCNC(=N)N)C(=O)N[C@@H](Cc1c[nH]cn1)C(=O)N[C@@H](Cc1c[nH]cn1)C(=O)N[C@@H](C)C(=O)N[C@@H](CCCCN)C(=O)N[C@@H](CCCCN)C(=O)N[C@@H](CCCCN)C(=O)NCCCCCC(=O)O [M1] (H-MARRRLLLLLARHHAKKK[Ahx]-OH),IC50,CaMKII-KD; read-out: IC50,29.4 µM
CC[C@H](C)[C@H](NC(=O)[C@H](CCCNC(=N)N)NC(=O)[C@H](CCCNC(=N)N)NC(=O)[C@H](C)NC(=O)[C@@H](N)CCSC)C(=O)N[C@@H](CC(C)C)C(=O)N[C@@H](CC(C)C)C(=O)N[C@@H](CC(C)C)C(=O)N[C@@H](CC(C)C)C(=O)N[C@@H](CC(C)C)C(=O)N[C@@H](C)C(=O)N[C@@H](CCCNC(=N)N)C(=O)N[C@@H](Cc1c[nH]cn1)C(=O)N[C@@H](Cc1c[nH]cn1)C(=O)N[C@@H](C)C(=O)N[C@@H](CCCCN)C(=O)N[C@@H](CCCCN)C(=O)N[C@@H](CCCCN)C(=O)NCCCCCC(=O)O [M2] (H-MARRILLLLLARHHAKKK[Ahx]-OH),IC50,CaMKII-KD; read-out: IC50,34 µM
CC[C@H](C)[C@H](NC(=O)[C@H](CCCNC(=N)N)NC(=O)[C@H](CCCNC(=N)N)NC(=O)[C@H](C)NC(=O)[C@@H](N)CCSC)C(=O)N[C@@H](CC(C)C)C(=O)N[C@@H](CC(C)C)C(=O)N[C@@H](CC(C)C)C(=O)N[C@@H](CC(C)C)C(=O)N[C@@H](CC(C)C)C(=O)N[C@@H](C)C(=O)N[C@@H](CCCNC(=N)N)C(=O)N[C@@H](CC(C)C)C(=O)N[C@@H](Cc1c[nH]cn1)C(=O)N[C@@H](C)C(=O)N[C@@H](CCCCN)C(=O)N[C@@H](CCCCN)C(=O)N[C@@H](CCCCN)C(=O)NCCCCCC(=O)O [M3] (H-MARRILLLLLARLHAKKK[Ahx]-OH),IC50,CaMKII-KD; read-out: IC50,19.4 µM
CC[C@H](C)[C@H](NC(=O)[C@H](CCCNC(=N)N)NC(=O)[C@H](C)NC(=O)[C@@H](N)CCSC)C(=O)N[C@H](C(=O)N[C@@H](CC(C)C)C(=O)N[C@@H](CC(C)C)C(=O)N[C@@H](CC(C)C)C(=O)N[C@@H](CC(C)C)C(=O)N[C@@H](CC(C)C)C(=O)N[C@@H](C)C(=O)N[C@@H](CCCNC(=N)N)C(=O)N[C@@H](CC(C)C)C(=O)N[C@@H](Cc1c[nH]cn1)C(=O)N[C@@H](C)C(=O)N[C@@H](CCCCN)C(=O)N[C@@H](CCCCN)C(=O)N[C@@H](CCCCN)C(=O)NCCCCCC(=O)O)[C@@H](C)CC [M5] (H-MARIILLLLLARLHAKKK[Ahx]-OH),IC50,CaMKII-KD; read-out: IC50,11.1 µM
CC[C@H](C)[C@H](NC(=O)[C@H](CCCNC(=N)N)NC(=O)[C@H](CCCNC(=N)N)NC(=O)[C@H](C)NC(=O)[C@@H](N)CCSC)C(=O)N[C@@H](CC(C)C)C(=O)N[C@@H](CC(C)C)C(=O)N[C@@H](CC(C)C)C(=O)N[C@@H](CC(C)C)C(=O)N[C@@H](CC(C)C)C(=O)N[C@@H](C)C(=O)N[C@@H](CC(C)C)C(=O)N[C@@H](CC(C)C)C(=O)N[C@@H](Cc1c[nH]cn1)C(=O)N[C@@H](C)C(=O)N[C@@H](CCCCN)C(=O)N[C@@H](CCCCN)C(=O)N[C@@H](CCCCN)C(=O)NCCCCCC(=O)O [M6] (H-MARRILLLLLALLHAKKK[Ahx]-OH),IC50,CaMKII-KD; read-out: IC50,12.3 µM
CO/C1=C\C(C)=C\[C@@H](C)[C@@H](O)[C@@H](C)C/C(C)=C/C=C/[C@H](OC)[C@@H]([C@@H](C)[C@@H](O)[C@H](C)[C@@]2(O)C[C@@H](O)[C@H](C)[C@@H](C(C)C)O2)OC1=O [baf],DiO positive vesicles (DiO/R18) Average,IAV strain PR8 [3],0.08663
"CO/C1=C\C(C)=C\[C@@H](C)[C@@H](O)[C@@H](C)C/C(C)=C/C=C/[C@H](OC)[C@@H]([C@@H](C)[C@@H](O)[C@H](C)[C@@]2(O)C[C@@H](O)[C@H](C)[C@@H](C(C)C)O2)OC1=O [bafilomycin A1, reference compound]",fusion process / virus entry into cells,IAV strain PR8 [3],efficiently inhibited virus entry into cells
"I: MARRILLLLLALLHAKKK[Ahx]KK-NH2 / II: MARRILLLLLALLHAKKK[Ahx]K / III: MARRILLLLLALLHAKKK[Ahx] / IV: MARRILLLLLALLHAKKK[Ahx] (amide I:20-IV:C, I:21-II:C, II:20-III:C) [T6]",IC50,CaMKII-KD,32.2 µM
"I: MARRILLLLLARHHAKKK[Ahx]KK-NH2 / II: MARRILLLLLARHHAKKK[Ahx]K / III: MARRILLLLLARHHAKKK[Ahx] / IV: MARRILLLLLARHHAKKK[Ahx] (amide I:20-IV:C, I:21-II:C, II:20-III:C) [T2]",IC50,CaMKII-KD,14.1 µM
"I: MARRILLLLLARLHAKKK[Ahx]KK-NH2 / II: MARRILLLLLARLHAKKK[Ahx]K / III: MARRILLLLLARLHAKKK[Ahx] / IV: MARRILLLLLARLHAKKK[Ahx] (amide I:20-IV:C, I:21-II:C, II:20-III:C) [T3]",IC50,CaMKII-KD,8.6 µM
"I: MARRRLLLLLARHHAKKK[Ahx]KK-NH2 / II: MARRRLLLLLARHHAKKK[Ahx]K / III: MARRRLLLLLARHHAKKK[Ahx] / IV: MARRRLLLLLARHHAKKK[Ahx] (amide I:20-IV:C, I:21-II:C, II:20-III:C) [T1]",IC50,CaMKII-KD,2.4 µM
"myr-Met-Ala-[no. 3 or 6 motif]-Ala [mM3, N-terminal myristoylated-M3 (myr-Met-Ala-[no. 3 motif]-Ala)]",LPS-induced Thr286 autophosphorylation of CaMKII,"[4]; RAW264.7, peptide 30 min then 10 ng/ml LPS 20 min, western blot",efficiently inhibited
same,Phosphorylation of CaMKII (ratio) AV,"[4]; peptide 10µM, RAW264.7 cells, (-) = 1, mean of n = 3",0.8346
same,inhibition of TNFα production,[5],inhibited TNFα production similarly to M6
same,"inhibitory effect on IAV cytopathicity, single cycle of infection",IAV strain PR8 [1],greatest inhibitory effect on IAV cytopathicity at concentrations up to 3 µM
same,"transcription of IL-6, TNFα and IL-1β","IL-6, TNFα, IL-1β mRNAs; RAW264.7, peptide 30 min then 10 ng/ml LPS 3 h, RT-qPCR",efficiently inhibited
same,IL-1β Relative expression AV,"IL-6, TNFα, IL-1β mRNAs; peptide only (no LPS)",0.006044
same,IL-6 Relative expression AV,"IL-6, TNFα, IL-1β mRNAs; peptide only (no LPS)",0.006603
same,TNFα Relative expression AV,"IL-6, TNFα, IL-1β mRNAs; peptide only (no LPS)",2.34
same,IL-1β Relative expression AV,"IL-6, TNFα, IL-1β mRNAs; peptide+LPS",16.8504
same,IL-6 Relative expression AV,"IL-6, TNFα, IL-1β mRNAs; peptide+LPS",27.8458
same,TNFα Relative expression AV,"IL-6, TNFα, IL-1β mRNAs; peptide+LPS",57.9321
